Data set [1] deals with Col2. The data set is described as follows: Growth inhibition of human Col2 cells xenografted in ip dosed NCr nu/nu mouse administered once daily from day 3 to 6 after implantation measured on day 7 by MTT-based hollow-fiber test. Type of data set: functional. In general terms: Xenograft models place foreign cells or tissue in a host animal.
The test system of data set [2] is KB. The data set is described as follows: Growth inhibition of human KB cells xenografted in NCr nu/nu mouse at 0.195 to 1.56 mg/kg, ip once daily administered from day 3 to 6 after implantation measured on day 7 by MTT-based hollow-fiber test. Type of data set: functional. Particulars: route intraperitoneal.
In data set [3] the test system is LNCaP. The data set is described as follows: Growth inhibition of human LNCAP cells xenografted in NCr nu/nu mouse at 0.195 to 1.56 mg/kg, sc once daily administered from day 3 to 6 after implantation measured on day 7 by MTT-based hollow-fiber test. Type of data set: functional. Particulars: route subcutaneous.
The subject of data set [4] is LNCaP. Nature of the data set: Growth inhibition of human LNCAP cells xenografted in NCr nu/nu mouse at 0.195 to 1.56 mg/kg, ip once daily administered from day 3 to 6 after implantation measured on day 7 by MTT-based hollow-fiber test. The data set is classed as functional. Particulars: route intraperitoneal.
The subject of data set [5] is KB. The data set is described as follows: Growth inhibition of human KB cells xenografted in NCr nu/nu mouse at 0.195 to 1.56 mg/kg, sc once daily administered from day 3 to 6 after implantation measured on day 7 by MTT-based hollow-fiber test. Type of data set: functional. Particulars: route subcutaneous.
For data set [6], the system named is Col2. Nature of the data set: Growth inhibition of human Col2 cells xenografted in NCr nu/nu mouse at 0.195 to 1.56 mg/kg, sc once daily administered from day 3 to 6 after implantation measured on day 7 by MTT-based hollow-fiber test. Type of data set: functional. Particulars: route subcutaneous.
Data set [7] has as its system LNCaP. The data set is described as follows: Growth inhibition of human LNCAP cells xenografted in ip dosed NCr nu/nu mouse administered once daily from day 3 to 6 after implantation measured on day 7 by MTT-based hollow-fiber test. The data set is classed as functional.
Data set [8] concerns Col2. The data set is described as follows: Growth inhibition of human Col2 cells xenografted in NCr nu/nu mouse at 0.195 to 1.56 mg/kg, ip once daily administered from day 3 to 6 after implantation measured on day 7 by MTT-based hollow-fiber test. Type of data set: functional. Particulars: route intraperitoneal.
Data set [9] concerns KB. Nature of the data set: Growth inhibition of human KB cells xenografted in NCr nu/nu mouse at 0.78 to 3.125 mg/kg, ip once daily administered from day 3 to 6 after implantation measured on day 7 by MTT-based hollow-fiber test. Type of data set: functional. The settings on record: route intraperitoneal.
In data set [10] the test system is LNCaP. Nature of the data set: Growth inhibition of human LNCAP cells xenografted in NCr nu/nu mouse at 0.78 to 3.125 mg/kg, ip once daily administered from day 3 to 6 after implantation measured on day 7 by MTT-based hollow-fiber test. The data set is classed as functional. Particulars: route intraperitoneal.
In data set [11] the test system is KB. Nature of the data set: Growth inhibition of human KB cells xenografted in NCr nu/nu mouse at 0.78 to 3.125 mg/kg, sc once daily administered from day 3 to 6 after implantation measured on day 7 by MTT-based hollow-fiber test. Particulars: route subcutaneous. Type of data set: functional.
In data set [12] the test system is LNCaP. The data set is described as follows: Growth inhibition of human LNCAP cells xenografted in NCr nu/nu mouse at 0.78 to 3.125 mg/kg, sc once daily administered from day 3 to 6 after implantation measured on day 7 by MTT-based hollow-fiber test. Type of data set: functional. The settings on record: route subcutaneous.
Data set [13] relates to LNCaP. Nature of the data set: Growth inhibition of human LNCAP cells xenografted in NCr nu/nu mouse at 10 to 40 mg/kg, sc once daily administered from day 3 to 6 after implantation measured on day 7 by MTT-based hollow-fiber test. The data set is classed as functional. The settings on record: route subcutaneous.
The subject of data set [14] is LNCaP. Nature of the data set: Growth inhibition of human LNCAP cells xenografted in NCr nu/nu mouse at 10 to 40 mg/kg, ip once daily administered from day 3 to 6 after implantation measured on day 7 by MTT-based hollow-fiber test. Particulars: route intraperitoneal. The data set is classed as functional.
For data set [15], the system named is LNCaP. The data set is described as follows: Growth inhibition of human LNCAP cells xenografted in NCr nu/nu mouse at 5 to 20 mg/kg, sc once daily administered from day 3 to 6 after implantation measured on day 7 by MTT-based hollow-fiber test. The data set is classed as functional. The settings on record: route subcutaneous.
For data set [16], the system named is LNCaP. The data set is described as follows: Growth inhibition of human LNCAP cells xenografted in NCr nu/nu mouse at 5 to 20 mg/kg, ip once daily administered from day 3 to 6 after implantation measured on day 7 by MTT-based hollow-fiber test. The settings on record: route intraperitoneal. Type of data set: functional.
Data set [17] has as its system Lu1. The data set is described as follows: Growth inhibition of human Lu1 cells xenografted in NCr nu/nu mouse at 0.625 to 5 mg/kg, sc once daily administered from day 3 to 6 after implantation measured on day 7 by MTT-based hollow-fiber test. The settings on record: dose mg/kg 3-6; route subcutaneous. The data set is classed as functional.
The test system of data set [18] is LNCaP. The data set is described as follows: Growth inhibition of human LNCAP cells xenografted in NCr nu/nu mouse at 0.625 to 5 mg/kg, ip once daily administered from day 3 to 6 after implantation measured on day 7 by MTT-based hollow-fiber test. The data set is classed as functional. The settings on record: route intraperitoneal.
In data set [19] the test system is MCF7. The data set is described as follows: Growth inhibition of human MCF7 cells xenografted in ip dosed NCr nu/nu mouse administered once daily from day 3 to 6 after implantation measured on day 7 by MTT-based hollow-fiber test. Type of data set: functional.
Data set [20] relates to Lu1. Nature of the data set: Growth inhibition of human Lu1 cells xenografted in NCr nu/nu mouse at 0.625 to 5 mg/kg, ip once daily administered from day 3 to 6 after implantation measured on day 7 by MTT-based hollow-fiber test. Particulars: dose mg/kg 3-6; route intraperitoneal. The data set is classed as functional.
Data set [21] relates to MCF7. The data set is described as follows: Growth inhibition of human MCF7 cells xenografted in NCr nu/nu mouse at 0.625 to 5 mg/kg, ip once daily administered from day 3 to 6 after implantation measured on day 7 by MTT-based hollow-fiber test. Particulars: dose mg/kg 3-6; route intraperitoneal. The data set is classed as functional.
For data set [22], the system named is LNCaP. The data set is described as follows: Growth inhibition of human LNCAP cells xenografted in NCr nu/nu mouse at 0.625 to 5 mg/kg, sc once daily administered from day 3 to 6 after implantation measured on day 7 by MTT-based hollow-fiber test. Type of data set: functional. The settings on record: route subcutaneous.
Data set [23] concerns Lu1. The data set is described as follows: Growth inhibition of human Lu1 cells xenografted in ip dosed NCr nu/nu mouse administered once daily from day 3 to 6 after implantation measured on day 7 by MTT-based hollow-fiber test. Type of data set: functional.
The test system of data set [24] is MCF7. Nature of the data set: Growth inhibition of human MCF7 cells xenografted in NCr nu/nu mouse at 0.625 to 5 mg/kg, sc once daily administered from day 3 to 6 after implantation measured on day 7 by MTT-based hollow-fiber test. Particulars: dose mg/kg 3-6; route subcutaneous. Type of data set: functional.
Data set [25] is described as follows: Acute toxicity in ip dosed mouse. Type of data set: organism-based. Particulars: in vivo.

With `CC(=O)O[C@H]1O[C@H]([C@@H]2c3cccc(O)c3C(=O)c3c(O)cc(C)cc32)[C@H](O)[C@@H](O)[C@H]1O` [ALVARADOIN F], the ED50 in the data set with Col2 [1] came to 230 nM; in the data set with LNCaP [7] it was 120 nM. The “growth inhibition (GI)” value in the data set on KB [2] is recorded as 32%; with LNCaP [3], 3%; in the data set on LNCaP [4] it was 59%; with KB [5] it was 2%; with Col2 [6] it was 1%; in the data set on Col2 [8], 21%.
Regarding `CC(=O)O[C@@H]1O[C@@H]([C@H]2c3cccc(O)c3C(=O)c3c(O)cc(C)cc32)[C@H](O)[C@@H](OC(=O)C=C(C)C)[C@H]1O` [ALVARADOIN H], the “growth inhibition (GI)” value with KB [9] worked out at 43%; in the data set on LNCaP [10] it was 47%; with KB [11] it was 1%; with LNCaP [12], 10%. Further, the ED50 in the data set with LNCaP [7] is 290 nM.
For `COc1ccc([C@H]2COc3c(ccc4c3C=CC(C)(CCC=C(C)C)O4)C2)c(O)c1O` (some centres undefined) [NITIDULIN], the “growth inhibition (GI)” value in the data set with LNCaP [13] is on record as 0%; with LNCaP [14], 54%. The same molecule gave an ED50 in the data set on LNCaP [7] of 9700 nM.
As for `O=C1OC[C@@H]2Cc3cc4c(cc3[C@@H](c3ccc5c(c3)OCO5)[C@H]12)OCO4` [PICROPOLYGAMAIN], the results for the “growth inhibition (GI)” value with LNCaP [15] and with LNCaP [16] were 3% and 21%, respectively. The same molecule showed an ED50 in the data set with LNCaP [7] of 3100 nM.
On to `COC(=O)[C@H]1[C@@H](O)[C@@]2(O)c3c(OC)cc(O[C@@H]4O[C@@H]([C@H](O)CO)CO[C@H]4OC)cc3O[C@@]2(c2ccc(OC)cc2)[C@@H]1c1ccccc1` [SILVESTROL], for which the “growth inhibition (GI)” value is 0% in the data set with Lu1 [17]; 15% in the data set with LNCaP [18]; 12% with Lu1 [20]; 20% with MCF7 [21]; 12% with LNCaP [22]; 5% with MCF7 [24]. For the same molecule, the ED50 with MCF7 [19] is given as 1.5 nM; with Lu1 [23] it was 1.2 nM; in the data set on LNCaP [7], 1.5 nM. The same molecule returned an MTD in [25] of 2.5 mg/kg.

The record behind these values is ChEMBL document CHEMBL1152339, “Use of the in vivo hollow fiber assay in natural products anticancer drug discovery” (J Nat Prod, 2009).
